From patent publication US20180177891A1, “Nanoparticle-Based Antigen Specific Immunotherapy” (Midatech Limited, priority 2015, published 2018)
Blank lines part the entries; values can stand above or below the molecule they belong to. Where no end group is shown, it is not given here.

Key:
[1] = Solubility tests; assay type: physicochemical
Experimental: Given the low incorporation of 10% C19-A3 peptide into GNPs (3-5%) using the 75% methanol-based preparation method, solubility tests were performed to determine the optimal solution for C19-A3 peptide conjugation to gold nanoparticles. […] Therefore, water-based GNP synthesis methods were developed using low (10%) or intermediate (35%) levels of methanol, and vivaspin centrifugation to remove any unbound peptide. GNPs containing 10% C19-A3 peptide and 10% glucose C2 (NP58) or 10% mannose C2 (NP61) were synthesised using a water-based (10% methanol) method (Table 12). HPLC analysis of peptide released from the C19-A3-GNPs following treatment with KCN solution (100 mM), confirmed 100% and 62% incorporation efficiency of C19-A3 peptide, with 31 and 19 peptides bound per GNP, for NP58 and NP61, respectively. An intermediate 35% methanol preparation method was also tested for synthesis of 10% C19-A3, 10% glucose C2 GNPs (NP63). HPLC analysis again confirmed high incorporation of C19-A3 peptide (67%), with 20 peptides bound per GNP.

[2] = tested on: OT-II (ovalbumin peptide (323-339) specific) CD4+ T cells; experiment: OT-II T cell proliferation in draining LN after intradermal injection; assay type: in vivo, C57BL/6 mice; conditions: 3 days later, flow cytometry
Experimental: PBS, ovalbumin peptide (323-339) or ovalbumin peptide (323-339) containing GNPs (NP167, NP168) were injected intradermally in C57BL/6 mice 24 h after i.v. administration of fluorescent cell trace violet (CTV)-labelled OT-II (ovalbumin peptide (323-339) specific) CD4+ T cells. 3 days later, draining LN cells were isolated and studied by flow cytometry. The presence of OT-II cells in the LN was shown by the appearance of cells of that are […] CD45.1^+Vα2^+ and high CTV fluorescence (right hand edge of square). Proliferation of OT-II cells was seen as dilution of the CTV fluorescence, bringing the cells progressively at each cell cycle into the blue box. The percentage of cells with the proliferation square is shown. […] Each plot represents the results from a different mouse.
PBS, ovalbumin peptide (323-339), or ovalbumin peptide (323-339) coupled GNPs (NP167, NP168) were administered intradermally to C57BL-6 mice, at the same time as i.v. administration of fluorescent cell trace violet (CTV) labelled OT-II (Ovalbumin peptide specific) CD4 positive T cells. Draining LN and spleen cells were harvested 3 days after ovalbumin (323-339) peptide administration, and studied by flow cytometry. Where fluorescent cells are seen but the level of fluorescence has been reduced, this implies that they have recognised their target peptide on APCs in that tissue and undergone cell division.

[3] = tested on: BDC-2.5 CD4+ T cells; experiment: BDC-2.5 CD4+ T cell proliferation in LNs and spleen after injection; assay type: in vivo, murine
Source text: Increased proliferation is seen with GNPs coupled to antigen both in the draining and distant LN sites and spleen.
A similar in vivo protocol was designed, using fluorescently labelled indicator CD4^+ T cells (BDC-2.5, specific for chromograninA 342-355 found in pancreatic beta cells) and the peptide “BDC-2.5 mimotope” (a peptide of similar configuration to this epitope, that mimics the chromogranin A 342-355 peptide) coupled to GNPs linked to either mannose C2 or glucose C2.
A preliminary in vivo experiment was carried out using the murine BDC-2.5 mimotope peptide and fluorescently-labelled indicator CD4 T cell clones specific for this peptide described above. GNPs were given coupled to peptide (BDC-2.5 mimotope), IL-10, or both, and compared to blank GNPs of injected controls. […] This provides evidence that the cytokine travels with the GNPs to distant sites when complexed with GNPs, and in bioactive form. This is of enhanced efficiency compared to IL-10 alone.

[4] = tested on: OT-II (ovalbumin peptide (323-339) specific) CD4+ T cells; experiment: Accumulation of fluorescent cells in LN of CCR7−/− mice; assay type: in vivo; conditions: CCR7−/− compared to wildtype B6 mice
Experimental: In order to determine whether the injected peptide is carried to draining LNs in fluid phase or carried via migratory skin DCs, homozygous knockout mice for the chemokine receptor CCR7 (which mediates DC migration from skin) were treated in the same protocol as above.

[5] = tested on: Human immature monocyte derived dendritic cells (iDCs); experiment: DC maturation (CD80, HLA-DR expression, FACS); assay type: cell-based; conditions: subsequent stimulation with LPS
Experimental: Human immature monocyte derived dendritic cells (iDCs) were incubated with proinsulin C19-A3 coupled GNPs or without GNPs for 4 h. Thereafter, the GNPs were washed off and cells left overnight, either alone or in the presence of 100 ng/ml LPS. Overnight maturation of DCs was measured as increases of CD80 and HLA-DR expression using FACS.
(§1) However, IL-10-GNPs changed the ability of DCs to upregulate HLA-DR and activation molecules CD80 and CD25 upon stimulation with LPS.

[6] = tested on: Human immature monocyte derived dendritic cells (iDCs); experiment: Cytokine release by DCs after LPS (Luminex); assay type: cell-based
Experimental: iDCs were also incubated with proinsulin C19-A3 GNPs coupled to glucose (GNPgluc), with proinsulin C19-A3 GNPs coupled to mannose (GNPman), or without GNPs for 4 hrs. Thereafter, cells were washed and subsequently stimulated with 100 ng/ml LPS and left overnight. Supernatants were collected the next day and cytokine (IL-10, IL-12 and TNF) release by DCs measured using Luminex.
as §1

solubility in water [1]: highly soluble
Molecule: GSLQPLALEGSLQKRGIV [C19-A3 peptide, GSLQPLALEGSLQKRGIV]

Molecule: ISQAVHAAHAEINEAGR [ovalbumin peptide, Ovalbumin 323-339 peptide, reference compound]
OT-II cell accumulation and proliferation in draining LN [2]: low levels

Molecule: YVRPLWVRME [BDC-2.5 mimotope peptide, peptide that mimics the chromogranin A 342-355 peptide, reference compound]
accumulation of proliferating indicator cells in draining LN, distant LNs and spleen ([3]; 3 days after injection): modest accumulation of proliferating indicator cells

Molecule: ovalbumin (323-339) GNPs: ovalbumin (323-339) peptide GNPs
fluorescent cells accumulated in the LN [4]: reduced numbers of fluorescent cells

B1: soluble IL-10: Human recombinant IL-10, not bound to nanoparticles (protein, UniProt P22301 19-178, looked up)
Interleukin-10: SPGQGTQSENSCTHFPGNLPNMLRDLRDAFSRVKTFFQMKDQLDNLLLKESLLEDFKGYLGCQALSEMIQFYLEEVMPQAENQDPDIKAHVNSLGENLKTLRLRLRRCHRFLPCENKSKAVEQVKNAFNKLQEKGIYKAMSEFDIFINYIEAYMTMKIRN
maturation of DCs upon LPS (phenotype) [5]: immature phenotype | pro-inflammatory cytokine production (IL-12 and TNF) ([6]; LPS-treated DCs): reduced pro-inflammatory cytokine production | release of IL-10 in the culture ([6]; final IL-10 concentration 100 pg/ml): significantly higher release of IL-10 | effect of IL-10 on proliferation of indicator T cells ([3]; preliminary in vivo experiment, IL-10 at the same concentration): no effect of proliferation
